pIC50: −log10 of the molar value. “Also recorded” adds a separate entry of the source.
How the values were obtained:
[1] = molecular target: T1, EGFR (Homo sapiens, UniProt P00533, DEL746-750); assay: western blot of EGFR phosphorylation in PC9 cells; assay type: cell-based; details: PC9 cells, 2 μM, 24 h (FIG. 3A)
T1 construct: endogenous in cells; host or cells: PC9 cells
Procedure: 40 μg/per lane of cell lysates were analyzed by western blot. The antibodies of actin, EGFR, and p-EGFR were from Cell Signaling (Danvers, Mass.). In FIGS. 1A-1B, actin lines are used to show an internal standard for the loading control in this western blot.

[2] = system: SK-Hep-1 cell lines (a hepatocellular carcinoma (HCC) cell); assay: MTT assay, growth inhibition of SK-Hep-1 cells; assay type: cell-based; details: SK-Hep-1 cells, 48 hours
Procedure: MTT assay was used to measure growth inhibition. […] MTT (3-(4,5-dimethylthiazol-2-yl)-2,5-diphenyl tetrazolium bromide) assay was performed as follow.
(§1) The effect of individual test compounds on cell viability was assessed by using the MTT in 6 replicates. Sk-Hep-1 cells were seeded and incubated in 96-well, flat-bottomed plates for 24 hours, and were exposed to various concentrations of test compounds dissolved in DMSO (final concentration, 0.1%) for 48 hours. Controls received DMSO vehicle at a concentration equal to that in drug-treated cells. The medium was removed, replaced by 200 μL of 0.5 mg/mL MTT in 10% fetal bovine serum containing DMEM (Dulbecco's Modified Eagle Medium), and cells were incubated in the carbon dioxide incubator at 37° C. for 2 hours. Supernatants were removed from the wells and the reduced MTT dye was solubilized in 100 μL/well DMSO. Absorbance at 570 nm was determined on a plate reader.
The SK-Hep1 cells were then analyzed with western blot assay and MTT assay.

[3] = system: Hep3B cell lines; assay: MTT assay, growth inhibition of Hep3B cells; assay type: cell-based; details: Homo sapiens
Procedure: as §1
Next, compounds 19, and 34-36 were screened against a panel of Hep3B cell lines for growth-inhibitory activities. […] Compounds 87-90, 95 and 96 were screened against a panel of PLC5 cell lines for growth-inhibitory activities.

[4] = system: CIP2A; assay: western blot of CIP2A expression in SK-Hep1 cells; assay type: cell-based; details: SK-Hep-1 cells
Procedure: Accordingly, the pyrimidine and quinazoline derivatives above were screened by using western blot analysis for expression of CIP2A in SK-Hep1 cells. Before the western blot analysis, the SK-Hep-1 cells were maintained in DMEM supplemented with 10% FBS, 100 units/mL penicillin G, 100 μg/mL streptomycin sulfate and 25 μg/mL amphotericin B in a 37° C. humidified incubator in an atmosphere of 5% CO2 in air. In this western blot analysis, SK-Hep1 cells were respectively treated with compounds 1-24 at a concentration of 20 μM for 24 hours. In FIG. 2, the mono-substituted pyrimidine derivatives (compounds 1-5) have no appreciable change in CIP2A expression.
Cell viability, measured by MTT assay, and CIP2A expressions, analyzed by western blot, in response to compound 19 or erlotinib treatment in SK-Hep1 cell line were analyzed. SK-Hep-1 cells were treated with erlotinib and compound 19 at 2.5 and 5 μM for 24 h, respectively. The SK-Hep1 cells were then analyzed with western blot assay and MTT assay.
(§2) Next, compounds […], 19, and 22 were used to explore whether downregulation of CIP2A lead to suppression of p-Akt. FIG. 4A is the western blot analysis of the effect of the compounds 4, 19, and 22 on phosphorylation of Akt, PARP and Actin. In this western blot analysis, SK-Hep-1 cells were respectively treated with compounds 4, 19, and 22 at a concentration of 5 μM for 30 hours. […] That is, compound 19 and 22 can substantially increase apoptotic cell death to inhibit cancer growth.

[5] = system: CIP2A; assay: western blot of CIP2A expression in H358, H460 and H322 lung cancer cells; assay type: cell-based; details: 5 μM (FIG. 3C)
Procedure: (§3) Similarly, CIP2A expressions analyzed by western blot were also performed for lung cancer cells, H358, H460, and H322 cell lines. Moreover, drug-induced apoptotic cell death was also assessed by western blot analysis of activated caspases cleaved poly(ADP-ribose)polymerase (PARP). The cleavage of PARP is explained as follow. The compound induces apoptotic signal which cleave the procaspase 3 to the active caspase 3. The activation of caspase 3 further cleaves PARP and inactivate PAPR function. The events are thought to be required in late apoptosis. Therefore, the PARP cleavage is an indicator of apoptosis.
(§4) In the PARP row of FIG. 3C, the upper bands represented the uncleavage PARP, and the middle band and lower band represented cleavage PARP.

[6] = system: PARP; assay: western blot of PARP cleavage in H358, H460 and H322 lung cancer cells; assay type: cell-based; details: 5 μM (FIG. 3C)
Procedure: as §3, §4

[7] = system: p-Akt; assay: western blot of p-Akt in SK-Hep-1 cells; assay type: cell-based; details: SK-Hep-1 cells, 5 μM, 30 hours (FIG. 4A)
Procedure: as §2
In other words, in the present of okadaic acid, the activation of PP2A by compound 19-incuced CIP2A inactivation is blocked.

[8] = system: PARP; assay: western blot of PARP cleavage in SK-Hep-1 cells; assay type: cell-based; details: 5 μM, 30 hours (FIG. 4A)
Procedure: as §2

[9] = system: SK-Hep-1 cells; assay: apoptotic cell death by flow cytometry (sub-G1) and cell death detection ELISA; assay type: cell-based; details: 2.5 and 5 μM, 24 h (FIG. 4B-4C)
Procedure: FIG. 4B is flow cytometry analysis of cell death induced by compounds 4, 19, and 22 at 5 μM, after 24 h of treatment in SK-Hep-1 cells. The apoptotic cells were assessed by flow cytometry (sub-G1). After Sk-Hep-1 cells were treated with compounds 4, 19, and 22, Sk-Hep-1 cells were trypsinized, collected by centrifugation and resuspended in PBS. After centrifugation, the cells were washed in PBS and resuspended in […] (PI) staining solution. Specimens were incubated in the dark for 30 min at 37° C. and then analyzed with an EPICS Profile II flow cytometer (Coulter Corp., Hialeah, Fla.). All experiments were performed in triplicate
FIG. 4C is ELISA analysis of cell death to analyze effects of compounds 4, 19, and 22 on DNA fragmentation in SK-Hep-1 cells. The effect of compounds 4, 19 and 22 on cell viability was assessed by a cell death detection ELISA kit (Roche Applied Science, Mannheim, Germany). SK-Hep-1 cells were treated with compounds 4 and 19 at 22 at 2.5 and 5 μM for 24 h. The cells were collected and assayed according to the standard protocol provided by the manufacturer.

[10] = system: SK-Hep-1 cell lines (a hepatocellular carcinoma (HCC) cell); assay: MTT assay, growth inhibition of SK-Hep-1 cells; assay type: cell-based; details: 2.5 and 5 μM, 24 h (FIG. 3B)
[11] = system: PLC5 xenograft tumor; assay: PLC5 xenograft tumor growth in nude mice; details: erlotinib 50 mg/kg/day; for tumor inhibition, PLC5 cell: p.o. daily, after 21 days of treatment, compounds 8 and 19 20 mg/kg/day
Procedure: (§5) The mice were housed in groups and maintained under standard laboratory conditions on a 12-hour light-dark cycle. They were given access to sterilized food and water ad libitum. All experimental procedures using these mice were performed in accordance with protocols approved by the Institutional Laboratory Animal Care and Use Committee of National Taiwan University. Each mouse was inoculated s.c. in the dorsal flank with 1×10^6 HCC cells suspended in 0.1 ml of serum-free medium containing 50% Matrigel (BD Biosciences, Bedford, Mass.). […] Controls received vehicle.
(§6) Tumor growth data points are reported as mean tumor volume±SE.

[12] = system: Huh-7 xenograft tumor; assay: Huh-7 xenograft tumor growth in nude mice; details: erlotinib 50 mg/kg/day; for effect on Huh-7 tumor growth, in words: p.o. daily for 3 weeks, compounds 20 mg/kg/day (FIG. 7A-7B); for tumor inhibition, Huh7 cell: p.o. daily, after 21 days of treatment, compounds 8 and 19 20 mg/kg/day
Procedure: as §5, §6

[13] = tumor-bearing mice, p.o. daily for 3 weeks; erlotinib 50 mg/kg/day, compounds 8 and 19 20 mg/kg/day

T1 sequence (P00533 with tags, fused parts or gaps DEL746-750): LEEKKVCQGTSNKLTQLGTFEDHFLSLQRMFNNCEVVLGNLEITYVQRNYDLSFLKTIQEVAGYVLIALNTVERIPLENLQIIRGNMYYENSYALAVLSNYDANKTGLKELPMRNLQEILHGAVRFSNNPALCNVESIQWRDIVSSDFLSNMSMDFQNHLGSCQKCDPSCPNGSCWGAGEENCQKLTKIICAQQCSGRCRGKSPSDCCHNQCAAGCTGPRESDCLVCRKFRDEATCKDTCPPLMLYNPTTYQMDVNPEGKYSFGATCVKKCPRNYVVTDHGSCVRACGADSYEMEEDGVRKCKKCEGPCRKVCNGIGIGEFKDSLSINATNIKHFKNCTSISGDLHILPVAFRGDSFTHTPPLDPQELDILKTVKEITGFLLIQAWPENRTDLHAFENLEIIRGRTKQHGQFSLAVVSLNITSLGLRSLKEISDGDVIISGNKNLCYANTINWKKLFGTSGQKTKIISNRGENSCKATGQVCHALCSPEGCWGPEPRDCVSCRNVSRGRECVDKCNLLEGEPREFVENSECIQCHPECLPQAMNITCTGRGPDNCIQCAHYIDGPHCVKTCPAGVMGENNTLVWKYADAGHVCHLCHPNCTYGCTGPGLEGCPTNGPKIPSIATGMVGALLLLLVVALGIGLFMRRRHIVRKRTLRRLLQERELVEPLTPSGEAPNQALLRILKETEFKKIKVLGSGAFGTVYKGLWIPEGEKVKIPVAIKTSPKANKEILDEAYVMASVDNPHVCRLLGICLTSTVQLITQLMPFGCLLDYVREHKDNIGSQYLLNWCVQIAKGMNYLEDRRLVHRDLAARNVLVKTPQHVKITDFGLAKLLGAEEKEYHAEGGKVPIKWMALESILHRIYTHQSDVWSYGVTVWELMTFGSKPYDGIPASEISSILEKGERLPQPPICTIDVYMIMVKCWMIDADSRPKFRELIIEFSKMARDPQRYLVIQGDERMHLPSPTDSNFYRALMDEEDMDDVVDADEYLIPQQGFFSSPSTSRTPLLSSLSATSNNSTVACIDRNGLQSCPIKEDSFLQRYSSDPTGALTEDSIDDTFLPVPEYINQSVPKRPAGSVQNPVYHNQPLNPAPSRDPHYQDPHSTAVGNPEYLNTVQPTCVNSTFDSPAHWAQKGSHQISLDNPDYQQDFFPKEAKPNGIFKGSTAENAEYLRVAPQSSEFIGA

Row | Structure (SMILES) | EGFR phosphorylation inhibition (western blot) [1] | pIC50 [2] | pIC50 [3] | inhibiting CIP2A expression ([4]; 5 μM, 30 hours (FIG. 4A)) | CIP2A expression ([4]; 2.5 and 5 μM, 24 h (FIG. 3B)) | CIP2A expression [5] | PARP cleavage [6] | p-Akt level [7] | PARP cleavage [8] | cell apoptosis (sub-G1 flow cytometry, DNA fragmentation ELISA) [9] | cell viability (MTT) [10] | effect on PLC5 tumor growth, in words ([11]; p.o. daily for 3 weeks, compounds 20 mg/kg/day (FIG. 6A-6B)) | tumor inhibition, PLC5 cell [11] | effect on Huh-7 tumor growth, in words [12] | tumor inhibition, Huh7 cell [12] | tolerability (signs of toxicity, body weight, necropsy) [13]
1 | C#Cc1cccc(Nc2nc(Nc3ccc(Oc4ccccc4)cc3)nc3cc(OC)c(OC)cc23)c1 [Compound 19, N^4-(3-Ethynylphenyl)-6,7-dimethoxy-N^2-(4-phenoxyphenyl)quinazoline-2,4-diamine] | no inhibitory effect on EGFR kinase | 5.55 | 5.89 | inhibiting CIP2A expression; also recorded: most potent inhibition of CIP2A expression | reduce the CIP2A expression | down-regulate the expression of CIP2A | induce the cleavage of PARP | reducing p-Akt level; also recorded: reduced Akt phosphorylation | inducing PARP cleavage | induced cell apoptosis | reduce the CIP2A expression and the cell viability in a dosage dependent manner | significantly reduced the growth of tumor; also recorded: better inhibitory effect on PLC5 tumors than erlotinib; also recorded: significantly reducing the growth of tumor | 60.6% | better inhibitory effect on Huh-7 tumors than erlotinib | 34.8% | 
2 | C#Cc1cccc(Nc2ncnc3cc(OCCOC)c(OCCOC)cc23)c1 [erlotinib, reference compound] |  |  |  |  |  |  |  |  |  |  |  |  | 50.0% | no effect on tumor growth | 8.8% | tolerated the treatments well without observable signs of toxicity
